Data published in patent publication US20140309296A1, “BUDIODARONE FORMULATIONS” (Armetheon, Inc., priority 2013, published 2014).
Read-outs that look alike come from different tables or passages of the source.

Legend:
[1] = Lower-limit ratio for soluble benzyl alcohol and budiodarone compositions in water (Example 6); format: physicochemical; conditions: 25, 50 and 100 mg/ml, introduced ratios 0.8 to 4.9, 24 hours in the dark, room temperature
Method: Three series of 20-ml screw-cap glass vials were prepared as described in Tables 5 to 7. Budiodarone tartrate was added to the empty vials, followed by water, and then benzyl alcohol was added. The vials were capped and the mixtures were vortexed for three times 10 seconds. The vials were then left in the dark for 24 hours and were then analyzed as described above using HPLC Conditions 2 and 3.
In FIG. 4, the approximately 5/1 lower-limit molar ratio is constant over a wide range of budiodarone concentrations, at least between budiodarone concentrations of 25 mg/ml and 100 mg/ml. The resulting ratios in solution, following 24-hour in the dark, were calculated from HPLC analysis data and were plotted versus the actual ratios introduced into the vials. Each point represents the mean findings of the three concentrations (25 mg/ml, 50 mg/ml, and 100 mg/ml)+/−standard deviation. […] This association takes place even when the original ratio introduced into the vial is as low as 0.8/1. Presumably the 5/1 ratio is an optimum molar ratio allowing for the optimum balance of repulsive ionic forces and attractive van der Waals forces between water molecules and the budiodarone/benzyl alcohol complex. […]

[2] = Low ratio of benzyl alcohol to budiodarone in water and 5% dextrose solution, stability (Example 9); format: physicochemical; conditions: 2.14/1 molar ratio, 25 mg/ml, room temperature
Method: The methanol was evaporated at 36° C. under partial vacuum (30 mmHg) to yield a thin film. To this residue was added 5 ml of water. The sample was then vortexed and a clear 25 mg/ml solution of budiodarone tartrate was obtained. A small aliquot was diluted 25 times with methanol and analyzed by HPLC (Sample 1). To the flask was then added 250 mg of D-(+)-glucose (also known as dextrose), resulting in a clear solution of 25 mg/ml budiodarone tartrate in 5% dextrose (D5W). A small sample was analyzed by HPLC (Sample 2).
Sample 2 is then analyzed over time to check physical and/or chemical stability in solution (Table 9).

[3] = Budiodarone concentration attainable in hyperconcentrated solutions (Examples 16-18); format: physicochemical
Method: The benzyl alcohol/budiodarone tartrate solution is viscous and therefore direct measurement of the budiodarone concentration is difficult. A better way to measure budiodarone concentration in the solution of benzyl alcohol and budiodarone oil or in a hyperconcentrated solution is by using an indirect method. In this example, the volume of the benzyl alcohol/budiodarone mixture was measured, which in turn allowed for the calculation of an accurate budiodarone concentration.
In each of five vials of accurately known volume, budiodarone tartrate (250 mg) and benzyl alcohol (91 μl) were mixed in order to make a 3/1 mixture (mol/mol). Then the solution was mixed thoroughly in order to make a clear solution. This was aided with the help of warming to 50° C. for 3 minutes in order to reduce the viscosity of the mixture. The weight of the vial containing the 3:1 mixture of benzyl alcohol/budiodarone was then recorded. Vial number 1 was filled with silicon oil of density d=0.964 and weighed again. The difference in weight provided the weight of the silicon oil added. This, divided by the density of the silicon oil provided the volume of silicon oil necessary to fill the vial. The difference with the known volume of the vial represents the volume of the benzyl alcohol/budiodarone mixture. To Vial numbers 2, 3, 4, and 5 was added 50, 100, 200, and 400 μl of water, respectively. The contents of the vials were then thoroughly mixed in order to get hyperconcentrated solutions of different volumes and different budiodarone concentrations. The volumes of these hyperconcentrations using silicon oil were measured as described above.
The same experiment as Example 16 was replicated, using mixtures of 5/1 ratio (250 mg of budiodarone tartrate and 152 μl of benzyl alcohol) and various volumes of water added. Using the same procedure as Example 16, a maximum calculated budiodarone concentration of 737 mg/ml and a maximum benzyl alcohol concentration of 45% (v/v) were found.
Similarly, the experiment in Example 16 was replicated, using a 1/1 mixture (250 mg of budiodarone tartrate and 30 μl of benzyl alcohol). A maximum calculated budiodarone concentration of 1,136 mg/ml and a maximum benzyl alcohol concentration of 13.6% (v/v) were found.

[4] = test system: subjects with paroxysmal atrial fibrillation who had implanted pacemakers; conditions: cited from earlier work
[5] = test system: patients with paroxysmal atrial fibrillation (PAF); conditions: 12 weeks, cited from earlier work; for median reduction in AFB: compared to placebo
[6] = pre-clinical safety testing; cited from earlier work

## CC[C@H](C)OC(=O)Cc1oc2ccccc2c1C(=O)c1cc(I)c(OCCN(CC)CC)c(I)c1 [budiodarone, (1S)-1-methylpropyl 2-(3-{4-[2-(diethylamino)ethoxy]-3,5-diiodobenzoyl}benzofuran-2-yl)acetate]
[1]
  lower-limit molar ratio of benzyl alcohol to budiodarone in solution: approximately 5/1
[2]
  time for which the low molar ratio is stable in D5W: about 120 hours
[3]; 1/1 mixture
  maximum calculated budiodarone concentration: 1,136 mg/ml
[3]; 3:1 molar ratio of benzyl alcohol/budiodarone
  calculated maximum budiodarone concentration: 890 mg/mL
[3]; 5/1 ratio
  maximum calculated budiodarone concentration: 737 mg/mL
[4]; 200 mg bid
  mean AFB (SD): 5.2 ± 4.2%
[4]; 400 mg bid
  mean AFB (SD): 5.2+5.2%
[4]; 600 mg bid
  mean AFB (SD): 2.8+3.4%
[4]; 800 mg bid
  mean AFB (SD): 1.5 ± 0.5%
[4]; at all doses (200 to 800 mg bid)
  decrease in AFB: at least 70%
[4]; p2 (200 mg bid)
  Mean episode duration (SD): 1.7+2.5 h
  relative reduction (RR) in AFB from baseline: 71.2 ± 31.3%
[4]; p3 (400 mg bid)
  Mean episode duration (SD): 0.6+0.7 h
  relative reduction (RR) in AFB from baseline: 71.7 ± 20.6%
[4]; p4 (600 mg bid)
  Mean episode duration (SD): 0.1+0.2 h
  relative reduction (RR) in AFB from baseline: 79.9 ± 26.4%
[4]; p5 (800 mg bid)
  Mean episode duration (SD): 0.5+0.7 h
  relative reduction (RR) in AFB from baseline: 86.8 ± 9.8%
[4]; treatment periods and washout
  number of AF episodes: increased initially
[4]; washout
  Mean episode duration (SD): 2.4+3.0 h
  mean AFB (SD): 11.7+14.0%
[5]; 400 mg BID
  median reduction in AFB: 54.4%
[5]; 600 mg BID
  median reduction in AFB: 75.5%
[5]; 600 mg BID, listed as Budiodarone
  median reduction in AFB: up to 75.5%
[5]; 200, 400 or 600 mg BID
  safety: no drug-related SAEs
[6]
  findings in canine testes: Non-specific but potentially toxic findings
